# Experimental data reported in US5512569A, “Aminoalkyl benzothiazolinones” (Adir et Compagnie, priority 1994, dated 1996).
# System: catalepsigenic effect
# Test: Investigation into the catalepsigenic effect in rats
# Type: in vivo, Wistar rats
# Settings: 2 mg.kg^-1, same study conditions (IP, rats, 30-minute interval)
# Method: The catalepsigenic effect is investigated in rats via the intraperitoneal route. This test predicts the existence of side effects of extrapyramidal type. 6 groups of Wistar rats received an injection of the compounds of the invention and were then tested for their catalepsigenic activity after a 30-minute interval. Haloperidol is used as reference.
compound,measurement,value
O=C(CCCN1CCC(O)(c2ccc(Cl)cc2)CC1)c1ccc(F)cc1 [haloperidol],catalepsigenic effect,95%
